From patent publication US8957083B2, “Spiro-amino-imidazolone and spiro-amino-dihydro-pyrimidinone compounds as beta-secretase modulators and methods of use” (Amgen Inc., priority 2010, dated 2015)
Like-named read-outs stand apart in the source and are kept apart here.

Key:
[1] = system: Aβ40 in conditioned medium of cells expressing amyloid precursor protein; assay: In vitro BACE cell-based assay (HEK cell assay), Aβ40 sandwich ELISA; settings: Aβ40 in supernatant after 24 h incubation
Procedure: In Vitro BACE Cell-Based Assay
The cell-based assay measures inhibition or reduction of Aβ40 in conditioned medium of test compound treated cells expressing amyloid precursor protein.
Cells stably expressing Amyloid Precursor Protein (APP) were plated at a density of 40K cells/well in 96 well plates (Costar). The cells were cultivated for 24 hours at 37° C. and 5% CO2 in DMEM supplemented with 10% FBS. The test compounds were then added to cells in 10-point dose response concentrations with the starting concentration being either 100 μM or 10 μM. The compounds were diluted from stock solutions in DMSO and the final DMSO concentration of the test compounds on cells was 0.1%. After 24 h of incubation with the test compounds the supernatant conditioned media was collected and the Aβ 40 levels were determined using a sandwich ELISA. The IC50 of the compound was calculated from the percent of control or percent inhibition of Aβ 40 as a function of the concentration of the test compound.
The sandwich ELISA to detect Aβ 40 was performed in 96 well microtiter plates, which were pre-treated with goat anti-rabbit IgG (Pierce). The capture and detecting antibody pair that were used to detect Aβ 40 from cell supernatants were affinity purified pAb40 (Biosource) and biotinylated 6E10 (Signet Labs Inc.), respectively. The optimal concentration for the pAb40 antibody was 3 μg/ml in Superblock/TBS (Pierce) that was supplemented with 0.05% Tween 20 (Sigma).
Cellular supernatants were incubated with the capture antibody for 3 h at 4° C., followed by 3 wash steps in TBS-tween (0.05%). The detecting antibody incubation was for 2 h at 4° C., again followed by the wash steps as described previously. The final readout of the ELISA is Time-Resolved Fluorescence (counts per minute) using Delfia reagents Streptavidin-Europium and Enhancement solutions (Perkin Elmer) and the Victor 2 multilabel counter (Perkin Elmer).

[2] = biological target: BACE 1 (Beta Secretase enzyme) (Homo sapiens (Human), UniProt P56817); assay: In vitro enzymatic BACE FRET assay; type: biochemical; settings: enzyme 0.2 nM, FRET substrate 50 nM, pH 4.2
Sequence of BACE 1 (Beta Secretase enzyme) (P56817 46-501): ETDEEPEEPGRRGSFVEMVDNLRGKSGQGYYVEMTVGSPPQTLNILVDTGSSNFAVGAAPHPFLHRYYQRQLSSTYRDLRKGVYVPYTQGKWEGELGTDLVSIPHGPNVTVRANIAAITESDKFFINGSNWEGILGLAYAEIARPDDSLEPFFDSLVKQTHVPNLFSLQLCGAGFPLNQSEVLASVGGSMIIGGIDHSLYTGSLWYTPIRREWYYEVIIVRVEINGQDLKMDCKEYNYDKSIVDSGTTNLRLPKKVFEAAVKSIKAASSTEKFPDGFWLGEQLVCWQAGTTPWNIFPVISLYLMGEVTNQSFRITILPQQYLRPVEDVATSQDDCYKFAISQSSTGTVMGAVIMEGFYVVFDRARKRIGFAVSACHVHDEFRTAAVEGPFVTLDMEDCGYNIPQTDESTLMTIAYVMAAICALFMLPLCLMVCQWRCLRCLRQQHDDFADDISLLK
Procedure: In Vitro Enzymatic BACE FRET (Fluorescence Resonance Energy Transfer) Assay (Enzyme Assay Data in the Example Table I)
The assay buffer used in this screen is 0.05 M acetate, pH 4.2, 10% DMSO final, 100 uM genapol (which is a nonionic detergent, below its Critical Micelle Concentration). […] This assay is effectively started by the addition of FRET substrate (50 nM) and the combination is incubated for one hour. The FRET assay is terminated with by addition of Tris buffer, which raises the pH to neutrality, and the fluorescence is determined. The FRET substrate is a peptide with commercially available fluorophore and quencher, on opposite sides of the BACE cleavage site. Proteolytic cleavage of the FRET substrate releases quenching of fluorescence (excitation […] and […]).

[3] = system: pigment epithelium of the rat's eye; settings: higher compound dose given for three months; cited from earlier work
[4] = system: Aβ; settings: orally available; cited from earlier work
[5] = system: Aβ in lumbar CSF; settings: cited from earlier work
[6] = biological target: Cathepsin D (Cat D) (Homo sapiens (Human), UniProt P07339); assay: In vitro enzymatic Cathepsin D (Cat D) FRET assay; type: biochemical; settings: Cat D enzyme 9 nM, FRET substrate 20 nM, pH 3.5
Sequence of Cathepsin D (Cat D) (P07339 65-412, species assumed): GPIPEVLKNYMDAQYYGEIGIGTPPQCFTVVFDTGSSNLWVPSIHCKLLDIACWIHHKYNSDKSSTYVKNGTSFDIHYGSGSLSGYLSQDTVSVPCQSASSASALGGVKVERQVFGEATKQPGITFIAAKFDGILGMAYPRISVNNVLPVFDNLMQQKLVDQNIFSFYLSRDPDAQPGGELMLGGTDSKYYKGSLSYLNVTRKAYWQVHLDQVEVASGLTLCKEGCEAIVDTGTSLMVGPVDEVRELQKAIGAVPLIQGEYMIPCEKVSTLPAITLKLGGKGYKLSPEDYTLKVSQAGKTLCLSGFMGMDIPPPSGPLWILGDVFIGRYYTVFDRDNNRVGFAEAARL
Procedure: In Vitro Enzymatic Cathepsin D (Cat D) FRET (Fluorescence Resonance Energy Transfer) Assay
Recombinant Cat D was expressed in CHO cells. The assay buffer for CathepsinD is 0.05 M citrate pH 3.5, 10% DMSO final, 5 mM CHAPS. The Cat D enzyme (9 nM) is pre-incubated for one hour with inhibitors, typically in about luL of DMSO according to a serial dilution, is added thereto. The assays are effectively started by the addition of different FRET substrates (20 nM for Cat D) and the combination is incubated for one hour. The FRET assay is terminated with by addition of Tris buffer, which raises the pH to neutrality, and the fluorescence is determined. The FRET substrate is a peptide with commercially available fluorophore and quencher, on opposite sides of the BACE cleavage site. The Cat D substrate peptide sequence is based on sequence #1 of Table 1 from Gulnik et al. FEB S Letters v413 p 379-384 1997. Proteolytic cleavage of the FRET substrate releases quenching of fluorescence (Cat D excitation 500 nm and emission 580 nm).
Where available, the in-vitro Cat D FRET assay data for each of the Examples, conducted by the first procedure, is provided.

[7] = Homo sapiens, HEK293, 24 h, average IC50, read-out: HEK cell assay
[8] = average IC50, read-out: BACE 1 FRET assay
[9] = average IC50, read-out: HEK cell assay

Row | IC50 [1, 7] | IC50 [2, 8] | Structure (SMILES) | further results
1 | 361 nM | 8210 nM | CN1C(=O)C[C@@]2(N=C1N)c1cc(-c3cccnc3F)ccc1Oc1c2cc(Cl)nc1F [Example 14, (R)-2′-amino-3-chloro-1-fluoro-7-(2-fluoropyridin-3-yl)-1′-methyl-1′H-spiro[chromeno[2,3-c]pyridine-5,4′-pyrimidin]-6′(5′H)-one] | –
2 | 9.9 nM | 0.3 nM | CN1C(=O)[C@]2(N=C1N)c1cc(-c3cccc(Cl)c3)ccc1Oc1c(F)cc(C3=CCOCC3)cc12 [Example 34, (4S)-2-amino-7′-(3-chlorophenyl)-2′-(3,6-dihydro-2H-pyran-4-yl)-4′-fluoro-1-methylspiro[imidazole-4,9′-xanthen]-5(1H)-one] | –
3 | 1680 nM | 1750 nM | CN1C(=O)C[C@@]2(N=C1N)c1cc(-c3cccnc3F)ccc1Oc1cnc(C3=CCOCC3)cc12 [Example 23, (R)-2′-amino-3-(3,6-dihydro-2H-pyran-4-yl)-7-(2-fluoropyridin-3-yl)-1′-methyl-1′H-spiro[chromeno[2,3-c]pyridine-5,4′-pyrimidin]-6′(5′H)-one] | –
4 | – | – | C[C@@]1(c2cc(-c3cncnc3)c(F)cc2F)CCSC(N)=N1 [LY2811376, (S)-4-(2,4-difluoro-5-pyrimidin-5-yl-phenyl)-4-methyl-5,6-dihydro-4H-[1,3]thiazin-2-ylamine] | retinal toxicity finding [3]: ravaged the pigment epithelium of the rat's eye; Aβ-lowering effects in animals [4]: profound Aβ-lowering effects; Aβ reductions in lumbar CSF ([5]; after oral dosing of 30 or 90 mg): Prominent and long-lasting Aβ reductions; safety and tolerability ([5]; healthy volunteers): safe and well tolerated
5 | 2.2 nM | 2 nM | CN1C(=O)C[C@]2(N=C1N)c1cc(-c3cccnc3F)ccc1Oc1c2cc(C2CCOC(C)(C)C2)nc1F (stereo partly drawn) [Example 28, (4′S)-2′-amino-3-(2,2-dimethyltetrahydro-2H-pyran-4-yl)-1-fluoro-7-(2-fluoropyridin-3-yl)-1′-methyl-1′H-spiro[chromeno[2,3-c]pyridine-5,4′-pyrimidin]-6′(5′H)-one] | –
6 | 108 nM | 13.4 nM | COc1ccc2c(c1)[C@]1(N=C(N)N(C)C1=O)c1cc(-c3cncnc3)ccc1O2 (stereo in doubt) [Example 8, 2-amino-2′-methoxy-1-methyl-7′-(pyrimidin-5-yl)spiro[imidazole-4,9′-xanthen]-5(1H)-one] | –
7 | 39 nM | 6.7 nM | COc1ccc2c(c1)C1(N=C(N)N(C)C1=O)c1cc(NC(=O)c3ccc(Cl)cn3)ccc1O2 (stereo not drawn) [Example 40, N-(2-amino-2′-methoxy-1-methyl-5-oxo-1,5-dihydrospiro[imidazole-4,9′-xanthen]-7′-yl)-5-chloropicolinamide] | IC50 [6]: 7.4 µM
8 | 3.6 nM | 0.9 nM | CN1C(=O)[C@]2(N=C1N)c1cc(C3=CCOCC3)ccc1Oc1ccc(-c3cccnc3F)cc12 (stereo in doubt) [Example 9, 2-amino-2′-(3,6-dihydro-2H-pyran-4-yl)-7′-(2-fluoropyridin-3-yl)-1-methylspiro[imidazole-4,9′-xanthen]-5(1H)-one] | –
9 | 643 nM | 33.2 nM | CN1C(=O)C[C@]2(N=C1N)c1cc(-c3cccnc3F)ccc1Oc1c2cc(Cl)nc1F [Example 15, (S)-2′-amino-3-chloro-1-fluoro-7-(2-fluoropyridin-3-yl)-1′-methyl-1′H-spiro[chromeno[2,3-c]pyridine-5,4′-pyrimidin]-6′(5′H)-one] | –
10 | – | 4.1 nM | Cc1ccc(-c2cc(F)c3c(c2)[C@]2(N=C(N)N(C)C2=O)c2cc(-c4cccc(Cl)c4)ccc2O3)cc1 (stereo in doubt) [Example 33, (4R)-2-amino-7′-(3-chlorophenyl)-4′-fluoro-1-methyl-2′-(4-methylphenyl)spiro[imidazole-4,9′-xanthen]-5(1H)-one, (4S)-2-amino-7′-(3-chlorophenyl)-4′-fluoro-1-methyl-2′-(4-methylphenyl)spiro[imidazole-4,9′-xanthen]-5(1H)-one] | IC50 [1, 9]: 237 nM
11 | 71.6 nM | 2.4 nM | CN1C(=O)CC2(N=C1N)c1cc(-c3cccnc3F)ccc1Oc1c2cc(-c2ccnc(F)c2)nc1F (stereo not drawn) [Example 18, 2′-amino-1-fluoro-7-(2-fluoropyridin-3-yl)-3-(2-fluoropyridin-4-yl)-1′-methyl-1′H-spiro[chromeno[2,3-c]pyridine-5,4′-pyrimidin]-6′(5′H)-one] | –
12 | 426 nM | 48.3 nM | CN1C(=N)NC2(CC1=O)c1cc(-c3cccnc3F)ccc1Oc1cnc(-c3cccnc3F)cc12 (stereo not drawn) [Example 21, 3,7-bis(2-fluoropyridin-3-yl)-2′-imino-1′-methyl-2′,3′-dihydro-1′H-spiro[chromeno[2,3-c]pyridine-5,4′-pyrimidin]-6′(5′H)-one] | –
13 | 59.8 nM | 9.3 nM | CN1C(=O)C[C@]2(N=C1N)c1cc(-c3cccnc3F)ccc1Oc1cnc(C3=CCOCC3)cc12 [Example 22, (S)-2′-amino-3-(3,6-dihydro-2H-pyran-4-yl)-7-(2-fluoropyridin-3-yl)-1′-methyl-1′H-spiro[chromeno[2,3-c]pyridine-5,4′-pyrimidin]-6′(5′H)-one] | –
14 | – | 0.5 nM | CC#Cc1cncc(-c2ccc3c(c2)[C@]2(N=C(N)N(C)C2=O)c2cc(C4=CCOCC4)cc(F)c2O3)c1 [Example 32, (4S)-2-amino-2′-(3,6-dihydro-2H-pyran-4-yl)-4′-fluoro-1-methyl-7′-(5-(1-propyn-1-yl)-3-pyridinyl)spiro[imidazole-4,9′-xanthen]-5(1H)-one] | IC50 [1, 9]: 7.6 nM
15 | – | – | CN1C(=N)N[C@@]2(CC1=O)c1cc(Br)ccc1Oc1cnc(Cl)cc12 [Example 20-A, (S)-7-bromo-3-chloro-2′-imino-1′-methyl-2′,3′-dihydro-1′H-spiro[chromeno[2,3-c]pyridine-5,4′-pyrimidin]-6′(5′H)-one] | IC50 ([1]; Homo sapiens, HEK293, 24 h, class symbols, read-out: HEK cell assay (IC50 class)): > 1000 nM; IC50 ([2]; class symbols, read-out: BACE 1 FRET assay (IC50 class)): > 1000 nM
